Measurements reported in article PMC9101764, “Synthesis and In Vitro Characterization of Selective Cannabinoid CB2 Receptor Agonists: Biological Evaluation against Neuroblastoma Cancer Cells” (Molecules, 2022).
pEC50, pKi: −log10 of the molar value.

Tests used:
hCB2R [1] = target: T1, hCB2R (Homo sapiens, UniProt P34972); assay: [3H]CP55,940 radioligand displacement assay, CHO cell membranes; format: binding
T1 construct: host or cells: HitHunter CHO-K1 cells
Experimental: (§1) CHO cells stably expressing hCB1R or hCB2R were maintained at 37 °C and 5% CO2 in Gibco Ham’s F-12 nutrient mix (Fisher Scientific, Loughborough, UK ) supplemented with 2 mM L-glutamine, 10% fetal bovine serum (FBS), 0.6% penicillin−streptomycin (Fisher Scientific, Loughborough UK), and the disulfate salt of geneticin (G418) as previously described (Sigma-Aldrich, Poole, UK). For subsequent radioligand displacement assays, membranes were prepared by scraping cells from flasks, centrifuging the cells, and storing the cell pellet at −20 °C. When required for us, cell pellets were defrosted and diluted in tris buffer (50 mM Tris-HCl and 50 mM Tris-base). As we have described in previous studies, HitHunter (cAMP) and PathHunter (βarrestin2) CHO-K1 cells stably expressing hCB1R or hCB2R from DiscoveRx® (Eurofins, Fremont, CA, USA) were maintained at 37 °C, 5% CO2 in F-12 DMEM containing 10% FBS and 1% Pen/Strep with 800 µg/mL geneticin (HitHunter) or 800 µg/mL G418 and 300 µg/mL hygromycin B (PathHunter).
(§2) We have previously described radioligand displacement assays in detail. […] Binding reactions were terminated by ice-cold tris binding buffer and subsequent vacuum filtration (24-well sampling manifold (Brandel cell harvester; Brandel Inc., Gaithersburg, MD, USA)) using Brandel GF/B filters soaked in wash buffer at 4 °C for at least 24 h. Filters were washed with 1.2 mL of tris-binding buffer six times, then oven-dried for 60 min before being incubated in 3 mL of scintillation fluid (Ultima Gold XR, PerkinElmer, Seer Green, Buckinghamshire, UK). Radioactivity was quantified by liquid scintillation spectrometry. All compounds were first prepared at 10 mM solutions in DMSO. The final vehicle concentration for assays was 0.1% DMSO. All assays were performed in duplicate.
(§3) Estimates of Ki, EC50, and Emax were determined using non-linear regression three-parameters (GraphPad, Prism, v. 9.0).

hCB1R = target: T2, hCB1R (Homo sapiens, UniProt P21554); assay: as above; format: binding
T2 construct: expressed in transfected cells; host or cells: CHO cells (membranes)
Experimental: as §1, §2, §3

ERK1/2 = ERK1/2 Western blot and densitometric analysis; format: cell-based, human; conditions: SH-SY5Y cells
Excerpt: Among the CB2R agonists tested, we selected FG158a as it provides the best dose–response curve in SH-SY5Y cells (Figure 4B). The effect of CB2R agonists on the ERK pathway has been previously detected in other tumor models such as a breast cancer model. The dysregulation of the ERK/MAPK pathway is crucial in neuroblastoma. […] We addressed the effect of FG158a on MAPK kinase activation by the evaluation of its component ERK1/2 in the presence and in the absence of the antagonist SR144528 (Figure 6).
After the treatment with FG158a (20 μM) in the presence and absence of SR144528 (added 1 h before the CB2R agonist at the concentration of 1 µM), SHSY5Y cells were centrifuged and cell pellets were lysed in R.I.P.A. buffer (50 mM Tris-HCl, pH = 7.4; 150 mM NaCl; […], 1% NP-40; 0.5% sodium deoxycholate; 0.1% SDS; 1:100 phosphatase and protease inhibitors, both added before the lysis). Samples were centrifuged (17,900× g 20′ at 4 °C) and protein concentration was determined by Bio-Rad Protein Assay (Bio-Rad, Berkeley, CA, USA) as previously described. […]
Figure 6 FG158a inhibition of ERK1/2 is mediated by CB2R. […] The statistical analysis was performed by parametric two tailed t-test (* p < 0.05 FG158a calculated with respect to the CTR; ^& p < 0.01 FG158a+SR144528 calculated with respect to FG158a).

hCB2R [2] = target: T1, hCB2R; assay: PathHunter β-arrestin2 recruitment assay in CHO cells; format: cell-based
Experimental: Compounds FG158a, FG160a, FG161a, and LV62 were also evaluated for their ability to recruit β-arrestin2, since G protein-coupled receptors also interact with β-arrestin, which facilitates receptor internalization, recycling, degradation, and signaling.
as §1
The quantification of β-arrestin2 recruitment using the DiscoveRx PathHunter assay has been described by our group previously and is summarized here.. Twenty thousand cells/well were grown overnight in Opti-MEM containing 1% FBS at 37 °C and 5% CO2 in low-volume 96 well plates. The next day, cells were treated with compounds for 90 min at 37 °C. Detection solution was added to cells according to the manufacturer’s directions (DiscoveRx) and cells were stored for 60 min at room temperature. After this incubation, chemiluminescence was quantified on a Cytation5 plate reader (top read, gain 200, integration time 10,000 ms).
as §3
Data are fitted to a non−linear regression (three parameter model, GraphPad v. 9.0). Data are mean ± S.E.M. of 6 independent experiments performed in triplicate.

[3] = CHO membranes, 0.1 nM-10 μM compounds

T1 sequence (P34972 whole entry): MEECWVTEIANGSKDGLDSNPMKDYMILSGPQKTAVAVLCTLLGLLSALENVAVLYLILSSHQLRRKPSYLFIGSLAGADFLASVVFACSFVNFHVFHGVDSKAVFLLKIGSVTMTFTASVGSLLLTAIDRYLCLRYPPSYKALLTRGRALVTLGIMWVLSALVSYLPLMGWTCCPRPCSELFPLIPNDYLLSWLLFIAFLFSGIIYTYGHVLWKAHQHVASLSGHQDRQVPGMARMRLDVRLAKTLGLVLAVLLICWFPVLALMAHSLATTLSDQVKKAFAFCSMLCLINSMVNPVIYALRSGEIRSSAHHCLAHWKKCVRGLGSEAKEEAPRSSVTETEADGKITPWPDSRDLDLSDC
T2 sequence (P21554 whole entry): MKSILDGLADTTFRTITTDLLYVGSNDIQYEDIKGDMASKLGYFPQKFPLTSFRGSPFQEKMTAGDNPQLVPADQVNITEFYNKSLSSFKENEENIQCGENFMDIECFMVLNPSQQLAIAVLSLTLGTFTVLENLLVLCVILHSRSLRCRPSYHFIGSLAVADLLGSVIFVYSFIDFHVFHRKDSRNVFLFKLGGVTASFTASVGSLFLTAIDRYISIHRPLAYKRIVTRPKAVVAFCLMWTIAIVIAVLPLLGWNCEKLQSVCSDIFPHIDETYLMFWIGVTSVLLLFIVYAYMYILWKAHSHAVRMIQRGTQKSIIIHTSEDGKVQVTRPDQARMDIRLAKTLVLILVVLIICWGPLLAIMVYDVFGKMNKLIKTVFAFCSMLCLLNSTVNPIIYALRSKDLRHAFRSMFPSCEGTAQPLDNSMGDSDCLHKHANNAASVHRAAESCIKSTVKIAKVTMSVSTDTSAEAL

SMILES: CC1CCC(NC(=O)c2cc3cccnc3n(CCCCCBr)c2=O)CC1 (stereo not drawn) [FG158a, 1-(5-bromopentyl)-N-(4-methylcyclohexyl)-2-oxo-1,2-dihydro-1,8-naphthyridine-3-carboxamide]
- pKi (hCB2R [1]): 7.68
- displacement of [3H]CP55,940 at hCB2R (hCB2R [1]; [3]): fully displaced [^3H]CP55,940
- pKi (hCB1R): < 5.00
- displacement of [3H]CP55,940 at hCB1R (hCB1R; [3]): not able to displace [^3H]CP55,940
- effect on ERK1/2 expression in presence of SR144528 (ERK1/2; 20 µM FG158a + SR144528 1 µM added 1 h before): reversed the inhibitory effect
- effect on ERK1/2 expression (ERK1/2; 20 µM, vs untreated control cells): inhibited ERK1/2 expression
- pEC50 (hCB2R [2]): < 5.00
- β-Arrestin2 Recruitment Emax (% CP55,940) ± S.E.M (hCB2R [2]; CHO cells expressing human CB2R, 90 min): 46 ± 1.8 % CP55,940
- melting point: 121 to 123 °C
